Laboratory results from patent US20100267561A1, “HERBICIDAL PYRIDAZINONE DERIVATIVES” (priority 2007, published 2010).
Where two headings read alike, the source gives them in different places.

Legend:
Assay in all cases: Test B pre-/postemergence plant response
Type in all cases: in vivo
[1] = test system: lambsquarters (Chenopodium album); details: Chenopodium album, read-out: Plant response rating, Lambsquarters; for pest or weed control at 31 g/ha: 31 g ai/ha, 100 complete control; for pest or weed control at 62 g/ha: 62 g ai/ha; for pest or weed control at 62 g/ha / pest or weed control at 125 g/ha / pest or weed control at 250 g/ha: scale 0 to 100; for pest or weed control at 125 g/ha: 125 g ai/ha; for pest or weed control at 250 g/ha: 250 g ai/ha
Procedure, shortened: (§1)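 Visual scoring from 0 (no effect) to 100 (complete control) against untreated controls was done 13 to 15 days after greenhouse treatment. Chemicals were formulated in a surfactant-containing non-phytotoxic solvent and applied to soil preemergence or to 1- to 4-leaf (2-18 cm) plants postemergence.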

[2] = test system: common ragweed (Ambrosia elation); details: Ambrosia, read-out: Plant response rating, Ragweed; for pest or weed control at 31 g/ha: 31 g ai/ha, 100 complete control; for pest or weed control at 62 g/ha: 62 g ai/ha; for pest or weed control at 62 g/ha / pest or weed control at 125 g/ha / pest or weed control at 250 g/ha: scale 0 to 100; for pest or weed control at 125 g/ha: 125 g ai/ha; for pest or weed control at 250 g/ha: 250 g ai/ha
Procedure, shortened: as §1

[3] = test system: pigweed (Amaranthus retroflexus); details: Amaranthus retroflexus, read-out: Plant response rating, Pigweed; for pest or weed control at 62 g/ha: 62 g ai/ha; for pest or weed control at 62 g/ha / pest or weed control at 125 g/ha / pest or weed control at 250 g/ha: scale 0 to 100; for pest or weed control at 125 g/ha: 125 g ai/ha; for pest or weed control at 250 g/ha: 250 g ai/ha
Procedure, shortened: as §1

[4] = test system: goosegrass (Eleusine indica); details: Eleusine indica, read-out: Plant response rating, Goosegrass; for pest or weed control at 31 g/ha: 31 g ai/ha, 100 complete control; for pest or weed control at 62 g/ha: 62 g ai/ha; for pest or weed control at 62 g/ha / pest or weed control at 125 g/ha / pest or weed control at 250 g/ha: scale 0 to 100; for pest or weed control at 125 g/ha: 125 g ai/ha; for pest or weed control at 250 g/ha: 250 g ai/ha
Procedure, shortened: as §1

[5] = test system: woolly cupgrass (Eriochloa villosa); details: Eriochloa villosa, read-out: Plant response rating, Cupgrass, Woolly; for pest or weed control at 31 g/ha: 31 g ai/ha, 100 complete control; for pest or weed control at 62 g/ha: 62 g ai/ha; for pest or weed control at 62 g/ha / pest or weed control at 125 g/ha / pest or weed control at 250 g/ha: scale 0 to 100; for pest or weed control at 125 g/ha: 125 g ai/ha; for pest or weed control at 250 g/ha: 250 g ai/ha
Procedure, shortened: as §1

kochia (Kochia scoparia) = test system: kochia (Kochia scoparia)
Procedure, shortened: as §1

[6] = test system: johnsongrass (Sorghum halepense); details: Sorghum halepense, read-out: Plant response rating, Johnsongrass; for pest or weed control at 31 g/ha: 31 g ai/ha, 100 complete control; for pest or weed control at 62 g/ha: 62 g ai/ha; for pest or weed control at 62 g/ha / pest or weed control at 125 g/ha / pest or weed control at 250 g/ha: scale 0 to 100; for pest or weed control at 125 g/ha: 125 g ai/ha; for pest or weed control at 250 g/ha: 250 g ai/ha
Procedure, shortened: as §1

soybean (Glycine max) = details: Glycine max, read-out: Plant response rating, Soybean; for plant injury at 31 g/ha: 31 g ai/ha, 100 complete control; for plant injury at 250 g/ha: 250 g ai/ha
Procedure, shortened: as §1

[7] = test system: eastern black (E.B.) nightshade (Solanum ptycanthum); details: Solanum, pre-emergence, Preemergence, read-out: Plant response rating, Nightshade, E. B.
Procedure, shortened: as §1

[8] = test system: blackgrass (Alopecurus myosuroides); details: for pest or weed control at 31 g/ha: 31 g ai/ha, 100 complete control; for pest or weed control at 62 g/ha: 62 g ai/ha; for pest or weed control at 125 g/ha: 125 g ai/ha
Procedure, shortened: as §1

[9] = test system: catchweed bedstraw (Galium aparine); details: Galium aparine, pre-emergence, Preemergence, read-out: Plant response rating, Galium
Procedure, shortened: as §1

[10] = test system: Italian ryegrass (Lolium multiflorum); details: Lolium multiflorum, read-out: Plant response rating, Ryegrass, Italian; for pest or weed control at 31 g/ha: 31 g ai/ha, 100 complete control; for pest or weed control at 62 g/ha: 62 g ai/ha; for pest or weed control at 62 g/ha / pest or weed control at 125 g/ha / pest or weed control at 250 g/ha: scale 0 to 100; for pest or weed control at 125 g/ha: 125 g ai/ha; for pest or weed control at 250 g/ha: 250 g ai/ha
Procedure, shortened: as §1

[11] = test system: giant foxtail (Setaria faberii); details: Setaria faberi, read-out: Plant response rating, Foxtail, Giant; for pest or weed control at 31 g/ha: 31 g ai/ha, 100 complete control; for pest or weed control at 62 g/ha: 62 g ai/ha; for pest or weed control at 62 g/ha / pest or weed control at 125 g/ha / pest or weed control at 250 g/ha: scale 0 to 100; for pest or weed control at 125 g/ha: 125 g ai/ha; for pest or weed control at 250 g/ha: 250 g ai/ha
Procedure, shortened: as §1

[12] = post-emergence, Postemergence, scale 0 to 100, 0 no effect
[13] = pre-emergence, Preemergence, 0 to 100 scale, 0 no effect
[14] = 31 g ai/ha, 0 to 100 scale, 0 no effect, 100 complete control
[15] = Alopecurus myosuroides, post-emergence, Postemergence, scale 0 to 100, read-out: Plant response rating, Blackgrass
[16] = Alopecurus myosuroides, pre-emergence, Preemergence, scale 0 to 100, read-out: Plant response rating, Blackgrass

## Cc1cc(-c2ccc(C(F)(F)F)cc2)nn1-c1c(O)cnn(C)c1=O [Compound 1, 5-hydroxy-2-methyl-4-[5-methyl-3-[4-(trifluoromethyl)phenyl]-1H-pyrazol-1-yl]-3(2H)-pyridazinone]
[1]; [12]
  pest or weed control at 31 g/ha: 0%
[1]; post-emergence, Postemergence
  pest or weed control at 62 g/ha: 0%
  pest or weed control at 125 g/ha: 40%
  pest or weed control at 250 g/ha: 50%
[1]; [13]
  pest or weed control at 31 g/ha: 0%
[1]; pre-emergence, Preemergence
  pest or weed control at 62 g/ha: 0%
  pest or weed control at 125 g/ha: 0%
  pest or weed control at 250 g/ha: 0%
[2]; [12]
  pest or weed control at 31 g/ha: 0%
[2]; post-emergence, Postemergence
  pest or weed control at 62 g/ha: 0%
  pest or weed control at 125 g/ha: 50%
  pest or weed control at 250 g/ha: 55%
[2]; [13]
  pest or weed control at 31 g/ha: 0%
[2]; pre-emergence, Preemergence
  pest or weed control at 62 g/ha: 0%
  pest or weed control at 125 g/ha: 0%
  pest or weed control at 250 g/ha: 0%
[3]; post-emergence, Postemergence, 31 g ai/ha, scale 0 to 100, 0 no effect, 100 complete control
  pest or weed control at 31 g/ha: 0%
[3]; post-emergence, Postemergence
  pest or weed control at 62 g/ha: 0%
  pest or weed control at 125 g/ha: 0%
  pest or weed control at 250 g/ha: 40%
[3]; pre-emergence, Preemergence
  pest or weed control at 62 g/ha: 0%
  pest or weed control at 125 g/ha: 0%
  pest or weed control at 250 g/ha: 0%
[4]; [12]
  pest or weed control at 31 g/ha: 30%
[4]; post-emergence, Postemergence
  pest or weed control at 62 g/ha: 30%
  pest or weed control at 125 g/ha: 50%
  pest or weed control at 250 g/ha: 85%
[4]; [13]
  pest or weed control at 31 g/ha: 50%
[4]; pre-emergence, Preemergence
  pest or weed control at 62 g/ha: 50%
  pest or weed control at 125 g/ha: 100%
  pest or weed control at 250 g/ha: 100%
[5]; [12]
  pest or weed control at 31 g/ha: 95%
[5]; post-emergence, Postemergence
  pest or weed control at 62 g/ha: 100%
  pest or weed control at 125 g/ha: 100%
  pest or weed control at 250 g/ha: 100%
[5]; [13]
  pest or weed control at 31 g/ha: 85%
[5]; pre-emergence, Preemergence
  pest or weed control at 62 g/ha: 100%
  pest or weed control at 125 g/ha: 100%
  pest or weed control at 250 g/ha: 100%
Kochia (Kochia scoparia); Postemergence, 31 g ai/ha, scale 0 to 100, 0 no effect, 100 complete control
  Plant response rating, Kochia: 0
Kochia (Kochia scoparia); Postemergence, 62 g ai/ha, scale 0 to 100
  Plant response rating, Kochia: 0
Kochia (Kochia scoparia); Postemergence, 125 g ai/ha, scale 0 to 100
  Plant response rating, Kochia: 0
Kochia (Kochia scoparia); Postemergence, 250 g ai/ha, scale 0 to 100
  Plant response rating, Kochia: 20
Kochia (Kochia scoparia); Preemergence, 62 g ai/ha, scale 0 to 100
  Plant response rating, Kochia: 0
Kochia (Kochia scoparia); Preemergence, 125 g ai/ha, scale 0 to 100
  Plant response rating, Kochia: 20
[6]; [12]
  pest or weed control at 31 g/ha: 60%
[6]; post-emergence, Postemergence
  pest or weed control at 62 g/ha: 90%
  pest or weed control at 125 g/ha: 100%
  pest or weed control at 250 g/ha: 100%
[6]; [13]
  pest or weed control at 31 g/ha: 90%
[6]; pre-emergence, Preemergence
  pest or weed control at 62 g/ha: 95%
  pest or weed control at 125 g/ha: 100%
  pest or weed control at 250 g/ha: 100%
Soybean (Glycine max); [12]
  plant injury at 31 g/ha: 0%
Soybean (Glycine max); post-emergence, Postemergence, 62 g ai/ha, scale 0 to 100
  plant injury at 62 g/ha: 25%
Soybean (Glycine max); post-emergence, Postemergence, 125 g ai/ha, scale 0 to 100
  plant injury at 125 g/ha: 50%
Soybean (Glycine max); post-emergence, Postemergence, scale 0 to 100
  plant injury at 250 g/ha: 60%
Soybean (Glycine max); [13]
  plant injury at 31 g/ha: 0%
Soybean (Glycine max); pre-emergence, Preemergence, scale 0 to 100
  plant injury at 250 g/ha: 0%
[7]; [14]
  pest or weed control at 31 g/ha: 0%
[7]; 62 g ai/ha, scale 0 to 100
  pest or weed control at 62 g/ha: 0%
[7]; 125 g ai/ha, scale 0 to 100
  pest or weed control at 125 g/ha: 0%
[7]; 250 g ai/ha, scale 0 to 100
  pest or weed control at 250 g/ha: 0%
[8]; 250 g ai/ha, preemergence, 0-100 scale
  Blackgrass plant response rating: 100
[8]; Alopecurus myosuroides, post-emergence, Postemergence, scale 0 to 100, 0 no effect, read-out: Plant response rating, Blackgrass
  pest or weed control at 31 g/ha: 20%
[8]; [15]
  pest or weed control at 62 g/ha: 90%
  pest or weed control at 125 g/ha: 100%
[8]; Alopecurus myosuroides, post-emergence, Postemergence, 250 g ai/ha, scale 0 to 100, read-out: Plant response rating, Blackgrass
  pest or weed control at 250 g/ha: 100%
[8]; Alopecurus myosuroides, pre-emergence, Preemergence, 0 to 100 scale, 0 no effect, read-out: Plant response rating, Blackgrass
  pest or weed control at 31 g/ha: 100%
[8]; [16]
  pest or weed control at 62 g/ha: 100%
  pest or weed control at 125 g/ha: 100%
[9]; [14]
  pest or weed control at 31 g/ha: 0%
[9]; 62 g ai/ha, scale 0 to 100
  pest or weed control at 62 g/ha: 0%
[9]; 125 g ai/ha, scale 0 to 100
  pest or weed control at 125 g/ha: 0%
[9]; 250 g ai/ha, scale 0 to 100
  pest or weed control at 250 g/ha: 0%
[10]; [12]
  pest or weed control at 31 g/ha: 95%
[10]; post-emergence, Postemergence
  pest or weed control at 62 g/ha: 100%
  pest or weed control at 125 g/ha: 100%
  pest or weed control at 250 g/ha: 100%
[10]; [13]
  pest or weed control at 31 g/ha: 80%
[10]; pre-emergence, Preemergence
  pest or weed control at 62 g/ha: 100%
  pest or weed control at 125 g/ha: 100%
  pest or weed control at 250 g/ha: 100%
[11]; [12]
  pest or weed control at 31 g/ha: 100%
[11]; post-emergence, Postemergence
  pest or weed control at 62 g/ha: 100%
  pest or weed control at 125 g/ha: 100%
  pest or weed control at 250 g/ha: 100%
[11]; [13]
  pest or weed control at 31 g/ha: 100%
[11]; pre-emergence, Preemergence
  pest or weed control at 62 g/ha: 100%
  pest or weed control at 125 g/ha: 100%
  pest or weed control at 250 g/ha: 100%
